Experimental data taken from patent publication US20260265771A1, “METHODS OF INCREASING THE REGENERATION EFFICIENCY IN PLANTS” (Institute of Genetics and Developmental Biology Chinese …, priority 2022, published 2026).
“Also recorded” adds a separate entry of the source.

Columns and labels:
[1] = test system: hypocotyl explants of tomato cultivar Ailsa Craig; assay: Callus formation of tomato hypocotyl explants on callus-inducing medium (CIM); format: cell-based
Protocol: FIG. 6—(a) Hypocotyl explants of WT (Ailsa Craig, AC) and prr mutants were cultured on callus-inducing medium (CIM) in the absence of SIPEP (REF1) and CIM REF1 at a concentration of 1 nM for 14 days, photographs of the callus formation of these plants are shown. (b) The distribution of projected callus area of WT and prr mutants grown in the absence of REF1 in a callus inducing medium (control) and in a callus inducing medium in the presence of 1 nM SIPEP (REF1). The projected area of callus was quantified by Image J. Individual values (black dots) are shown and error bars represent SD from three independent experiments.
FIG. 9—Hypocotyl explants of WT (Ailsa Craig, AC) were cultured on callus-inducing medium (CIM) containing indicated concentrations of REF1, and callus phenotype was scored 14 days after incubation. […] The projected area of callus was quantified by Image J. Individual values (black dots) are shown and error bars represent SD from three independent experiments. ***P<0.001, **P<0.01, *P<0.05 (Student's t-test).
Relative callus area was determined by quantifying the area of each callus using ImageJ, the average of each group was calculated, for each group this was then divided by the average of the control group.
To further test whether SIPEP (REF1) is a wound signal promoting regeneration in tomato, wild type, prr-1 and prr-2 Aisla Craig hypocotyl explants were cultured on a callus inducing medium in the presence and absence of SIPEP (REF1) at 1 nM. The callus phenotype was then scored at 14 days after incubation (FIG. 6), here it can be seen that presence of 1 nM REF1 in the medium increased callus area in all explants tested, crucially, the relative callus area of prr-1 and prr-2 was restored when REF1 was present in the medium.
To test the effect of the dose of SIPEP (REF1) on callus formation hypocotyl explants of WT (Ailsa Craig) were cultured on callus-inducing medium (CIM) containing indicated concentrations of REF1 in FIG. 9 (mock with 0, 10^−4, 10^−3, […], 1, and 10 nM) and callus phenotype was scored 14 days after incubation. Box plots represent the distribution of projected callus area.
Callus formation was measured in RER knock out mutants (rer-1 and rer-3) compared to wild type (WT) tomato plants (Ailsa Craig) in the presence and absence of SIPEP (REF1). […] Here it can be seen that callus area was highest in WT plant grown with REF1, as REF1 induces callus formation, as shown in Examples 2 and 4.

RER [2] = assay: Autophosphorylation assay of RER in tobacco leaves; format: cell-based, tomato; details: 100 nM, 20 min
RER [3] = assay: pFRK1::LUC expression in A. thaliana protoplasts (receptor activation); format: cell-based, tomato; details: 3 h
Protocol: Data are mean±SD, n=3 repeats. […] Data are mean±SD, n=3 repeats.
Receptor activation was tested by using FRK1 expression as a marker gene. […] Data are mean±SD, n=3 repeats. ***P<0.001 (Student's t test); ns, not significant FRK-Luciferase expression was used as a marker to test REF1 binding-mediated activation of its receptor. Based on these assay, the EC50 was calculated (half-maximal stimulation) of REF1-receptor binding as an assessment of the binding affinity of REF1 to its receptor RER.

[4] = test system: serk and sIwind1 mutant hypocotyl explants; assay: Callus formation and shoot organogenesis of serk and sIwind1 mutant hypocotyl explants; format: cell-based, tomato; details: 1 nM REF1
Protocol: FIG. 49—REF1-RER1 regulates regeneration through SERK co-receptors. (a) RER1 complexes with SERK1, SERK3a and SERK3b in a REF1-dependent manner. Tobacco leaves transfected with SERKs-myc and RER1-HA-Flag were treated with 100 nM REF1 before IP with anti-myc agarose. RER1 and SERKs were detected by immunoblotting with anti-Flag or anti-myc antibodies, respectively. (b and c) REF1-induced callus formation of indicated genotypes. Hypocotyl explants were cultured on CIM with or without 1 nM REF1 for 14 d before callus phenotype was scored. Shown are representative callus images (b) and quantification of the callus projection area (c). Bars, 1 mm. Data are mean±SE. n=30 hypocotyl explants. […] Hypocotyl explants were cultured on CIM for 14 d and then transferred to SIM with or without 1 nM REF1 for 21d before shoot organogenesis phenotype was scored. […] In (c), the projected area of callus was quantified by Image J. Box plots represented the distribution of projected callus area. […] In (c) and (e), data points from three biological replicates were analysed with a one-sided Kruskal-Wallis test with Holm correction, followed by post hoc Dunn's test. […]
(a) Induction of the SIWIND1 promoter activity at the wound sites of hypocotyl explants. […] Hypocotyl explants were cultured on CIM with or without 1 nM REF1 for 14 d before callus phenotype was scored. […]

RER, sequence (as listed by the source): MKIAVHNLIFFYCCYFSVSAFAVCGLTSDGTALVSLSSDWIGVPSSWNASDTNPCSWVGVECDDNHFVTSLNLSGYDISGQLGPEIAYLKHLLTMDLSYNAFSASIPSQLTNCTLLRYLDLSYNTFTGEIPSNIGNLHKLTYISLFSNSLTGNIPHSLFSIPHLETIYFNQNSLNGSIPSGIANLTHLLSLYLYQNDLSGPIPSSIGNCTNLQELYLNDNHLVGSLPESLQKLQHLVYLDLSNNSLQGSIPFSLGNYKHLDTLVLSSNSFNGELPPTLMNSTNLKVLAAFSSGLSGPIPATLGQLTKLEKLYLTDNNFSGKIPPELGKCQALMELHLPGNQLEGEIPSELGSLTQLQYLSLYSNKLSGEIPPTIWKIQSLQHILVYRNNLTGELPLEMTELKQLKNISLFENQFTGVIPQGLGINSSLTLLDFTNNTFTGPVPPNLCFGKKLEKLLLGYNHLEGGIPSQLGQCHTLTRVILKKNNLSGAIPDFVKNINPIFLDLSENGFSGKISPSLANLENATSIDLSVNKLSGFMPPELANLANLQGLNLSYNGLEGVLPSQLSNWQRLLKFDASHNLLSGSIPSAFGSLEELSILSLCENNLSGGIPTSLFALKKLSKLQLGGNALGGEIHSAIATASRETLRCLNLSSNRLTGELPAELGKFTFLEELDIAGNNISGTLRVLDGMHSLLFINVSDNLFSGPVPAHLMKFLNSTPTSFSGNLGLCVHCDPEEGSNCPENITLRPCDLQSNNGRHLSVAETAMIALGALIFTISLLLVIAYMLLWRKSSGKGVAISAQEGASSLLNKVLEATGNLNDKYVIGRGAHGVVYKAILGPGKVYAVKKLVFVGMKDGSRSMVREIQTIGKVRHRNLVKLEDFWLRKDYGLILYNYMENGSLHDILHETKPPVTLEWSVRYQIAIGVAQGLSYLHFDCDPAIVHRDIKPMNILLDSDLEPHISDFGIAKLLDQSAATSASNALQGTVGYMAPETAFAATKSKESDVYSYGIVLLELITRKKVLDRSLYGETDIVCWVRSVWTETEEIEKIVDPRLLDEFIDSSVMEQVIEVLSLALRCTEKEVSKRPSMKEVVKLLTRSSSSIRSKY

**Q.** For “ATDRRGRPPSRPKVGSGPPPQNN (listed as Solanum lycopersicum) [REF1, 23 amino acid tomato peptide cleaved from precursor PROSIPEP]”, which “optimum concentration to maximize callus formation” value ([1]; WT Ailsa Craig explants, CIM, 14 days) is on record?
**A.** Its value is 1 nM.

**Q.** What about the relative callus area ([1]; WT Ailsa Craig, 10 nM REF1 compared with 1 nM) of the same sequence?
**A.** The relative callus area was “sharp decrease”.

**Q.** And the relative callus area ([1]; WT Ailsa Craig, CIM with 1 nM REF1 vs without, 14 days)?
**A.** The relative callus area was “induced larger callus areas; also recorded: highest”.

**Q.** And the “relative callus area, dose dependence” value ([1]; WT Ailsa Craig, CIM, mock to 10 nM REF1, 14 days)?
**A.** The value was “increased in a dose dependent manner”.

**Q.** What about the relative callus area ([1]; prr-1 and prr-2 mutants, CIM with 1 nM REF1, 14 days) of the same sequence?
**A.** The relative callus area was “restored”.

**Q.** And the “REF1 induced callus formation (relative callus area)” value ([1]; rer-1 and rer-3 knockouts, presence vs absence of REF1)?
**A.** Its value is “failing to lead to any increase; also recorded: defective”.

**Q.** What about the “auto-phosphorylation of RER” value (RER [2]) of the same sequence?
**A.** The value was “triggers auto-phosphorylation”.

**Q.** What about the “binding-mediated activation of receptor RER (pFRK1::LUC expression)” value (RER [3]; 100 nM) of the same sequence?
**A.** Its value is “bound”.

**Q.** What about the “binding affinity of REF1 to its receptor RER” value (RER [3]; indicated concentrations) of the same sequence?
**A.** Its value is “high affinity”.

**Q.** And the “rescue of compromised regenerative capacity” value ([4]; sIwind1 mutants)?
**A.** The value was “could not be rescued”.

**Q.** And the “rescue of regenerative defects (callus formation, shoot organogenesis)” value ([4]; serk3a-1, serk3b-1 and serk3a-1 serk3b-1 mutants)?
**A.** Its value is “failed to rescue”.
